Measured values as given in patent US20120252729A1, “PTH-CONTAINING THERAPEUTIC/PROPHYLACTIC AGENT FOR OSTEOPOROSIS, CHARACTERIZED IN THAT PTH IS ADMINISTERED ONCE A WEEK IN A UNIT DOSE OF 100 TO 200 UNITS” (ASAHI KASEI PHARMA CORPORATION, priority 2009, published 2012).

Key:
[1] = system: osteoporosis patients having normal renal function, mild or moderate renal dysfunction; details: in vivo
[2] = system: high-risk patients diagnosed with primary osteoporosis; assay: Working Example 2: worsening vertebral fractures; assay type: in vivo, human; details: 200 units weekly, FAS
Source text: The vertebral fractures in the present invention also include both new fractures and worsening fractures. […] New and worsening [fractures] can be classified by the grade increase pattern according to the criteria of Genant. Concretely speaking, a fracture is diagnosed as a new fracture when a change is found from grade 0 to grade 1, 2, or 3. It can be regarded as a worsening fracture when a change is found from grade 1 to grade 2 or 3 or from grade 2 to grade 3. The vertebral height was measured according to the method of Inoue et al. (Non-patent reference 35) and the method of Hayashi et al. (Non-patent Reference 36) to accurately assess the changes in grade.
The incidence of bone fractures was checked by frontal and lateral x-rays of the fourth thoracic to the fourth lumbar spine taken at the start and every 24 weeks thereafter.
The efficacy of the test drug on worsening bone fractures was studied.

[3] = system: high-risk patients diagnosed with primary osteoporosis; assay: Working Example 2: bone density of lumbar spine and femur by DXA; assay type: in vivo, human; details: 200 units weekly; for Change in bone density (%), lumbar spine / Change in bone density (%), neck of femur / Change in bone density (%), proximal femur: patients taking glucocorticoid
Description: For the bone density of the femur, only the left side of the proximal part of the femur, rotated 20°, was measured at the start and every 24 weeks thereafter using dual-energy x-ray absorptiometry (DXA).

[4] = history of calcium L-aspartate, 24 W
[5] = history of calcium L-aspartate, 48 W
[6] = history of calcium L-aspartate, 72 W
[7] = history of calcium lactate, 24 W
[8] = history of calcium lactate, 48 W
[9] = history of calcium lactate, 72 W
[10] = history of raloxifene hydrochloride, 24 W
[11] = history of raloxifene hydrochloride, 48 W
[12] = history of raloxifene hydrochloride, 72 W
[13] = mild impairment (≧50-<80), after 24 W
[14] = mild impairment (≧50-<80), after 48 W
[15] = mild impairment (≧50-<80), final
[16] = moderate impairment (<50), after 24 W
[17] = moderate impairment (<50), after 48 W
[18] = moderate impairment (<50), after 72 W
[19] = moderate impairment (<50), final

## teriparatide acetate
[1]
  Side effects Yes (%): 36.8%
  Side effects, point estimate of the difference: 29.1
  Side effects: No (%): 55.1%
  Side effects: No, No. of cases: 27
  Side effects: Yes (%): 44.9%
  Side effects: Yes, No. of cases: 22
[2]
  Difference between test drug group and control group after 72 W (%), incidence of worsening fractures: 1.8%
  Worsening fractures: No. with fractures: 1
[2]; after 24 W
  Incidence of worsening fractures (%): 0.4%
[2]; after 48 W
  Incidence of worsening fractures (%): 0.4%
[2]; after 72 W
  Incidence of worsening fractures (%): 0.4%
[3]; history of Alfacalcidol, 24 W
  Percentage change in bone density (%), lumbar spine: 3.11%
  Percentage change in bone density (%), neck of femur: 1.64%
  Percentage change in bone density (%), proximal femur: 2.77%
[3]; history of Alfacalcidol, 48 W
  Percentage change in bone density (%), lumbar spine: 5.47%
  Percentage change in bone density (%), neck of femur: 0.85%
  Percentage change in bone density (%), proximal femur: 2.31%
[3]; history of Alfacalcidol, 72 W
  Percentage change in bone density (%), lumbar spine: 6.47%
  Percentage change in bone density (%), neck of femur: 2.19%
  Percentage change in bone density (%), proximal femur: 2.31%
[3]; history of calcitriol, 24 W
  Percentage change in bone density (%), lumbar spine: 3.50%
  Percentage change in bone density (%), neck of femur: −0.60%
  Percentage change in bone density (%), proximal femur: −1.40%
[3]; history of calcitriol, 48 W
  Percentage change in bone density (%), lumbar spine: 4.40%
  Percentage change in bone density (%), neck of femur: −4.03%
  Percentage change in bone density (%), proximal femur: −1.05%
[3]; history of calcitriol, 72 W
  Percentage change in bone density (%), lumbar spine: 6.38%
  Percentage change in bone density (%), neck of femur: −3.53%
  Percentage change in bone density (%), proximal femur: −0.04%
[3]; [4]
  Percentage change in bone density (%), lumbar spine: 3.78%
  Percentage change in bone density (%), neck of femur: 1.44%
  Percentage change in bone density (%), proximal femur: 1.76%
[3]; [5]
  Percentage change in bone density (%), lumbar spine: 6.16%
  Percentage change in bone density (%), neck of femur: 1.88%
  Percentage change in bone density (%), proximal femur: 2.28%
[3]; [6]
  Percentage change in bone density (%), lumbar spine: 5.85%
  Percentage change in bone density (%), neck of femur: 4.17%
  Percentage change in bone density (%), proximal femur: 3.69%
[3]; [7]
  Percentage change in bone density (%), lumbar spine: 1.96%
  Percentage change in bone density (%), neck of femur: 0.30%
  Percentage change in bone density (%), proximal femur: 1.78%
[3]; [8]
  Percentage change in bone density (%), lumbar spine: 3.45%
  Percentage change in bone density (%), neck of femur: −4.35%
  Percentage change in bone density (%), proximal femur: −1.68%
[3]; [9]
  Percentage change in bone density (%), lumbar spine: 4.93%
  Percentage change in bone density (%), neck of femur: −2.53%
  Percentage change in bone density (%), proximal femur: −3.20%
[3]; history of elcatonin, 24 W
  Percentage change in bone density (%), lumbar spine: 3.95%
  Percentage change in bone density (%), neck of femur: 1.62%
  Percentage change in bone density (%), proximal femur: 3.86%
[3]; history of elcatonin, 48 W
  Percentage change in bone density (%), lumbar spine: 3.59%
  Percentage change in bone density (%), neck of femur: 0.72%
  Percentage change in bone density (%), proximal femur: 3.44%
[3]; history of elcatonin, 72 W
  Percentage change in bone density (%), lumbar spine: 5.36%
  Percentage change in bone density (%), neck of femur: 3.15%
  Percentage change in bone density (%), proximal femur: 4.41%
[3]; history of menatetrenone, 24 W
  Percentage change in bone density (%), lumbar spine: 2.70%
  Percentage change in bone density (%), neck of femur: 0.72%
  Percentage change in bone density (%), proximal femur: 0.60%
[3]; history of menatetrenone, 48 W
  Percentage change in bone density (%), lumbar spine: 3.04%
  Percentage change in bone density (%), neck of femur: −3.18%
  Percentage change in bone density (%), proximal femur: −0.56%
[3]; history of menatetrenone, 72 W
  Percentage change in bone density (%), lumbar spine: 4.32%
  Percentage change in bone density (%), neck of femur: −0.78%
  Percentage change in bone density (%), proximal femur: −1.40%
[3]; [10]
  Percentage change in bone density (%), lumbar spine: 1.77%
  Percentage change in bone density (%), neck of femur: 0.21%
  Percentage change in bone density (%), proximal femur: 2.44%
[3]; [11]
  Percentage change in bone density (%), lumbar spine: 4.96%
  Percentage change in bone density (%), neck of femur: 1.03%
  Percentage change in bone density (%), proximal femur: 2.26%
[3]; [12]
  Percentage change in bone density (%), lumbar spine: 4.59%
  Percentage change in bone density (%), neck of femur: −0.51%
  Percentage change in bone density (%), proximal femur: 3.03%
[3]; [13]
  Change in lumbar vertebral density (%), mean: 3.9%
  Change in lumbar vertebral density (%), median: 3.7%
[3]; [14]
  Change in lumbar vertebral density (%), mean: 6.0%
  Change in lumbar vertebral density (%), median: 5.7%
[3]; mild impairment (≧50-<80), after 72 W
  Change in lumbar vertebral density (%), mean: 6.3%
[3]; [15]
  Change in lumbar vertebral density (%), mean: 5.8%
  Change in lumbar vertebral density (%), median: 5.4%
[3]; [16]
  Change in lumbar vertebral density (%), mean: 3.7%
  Change in lumbar vertebral density (%), median: 3.5%
[3]; [17]
  Change in lumbar vertebral density (%), mean: 4.9%
  Change in lumbar vertebral density (%), median: 3.8%
[3]; [18]
  Change in lumbar vertebral density (%), mean: 6.1%
  Change in lumbar vertebral density (%), median: 6.3%
[3]; [19]
  Change in lumbar vertebral density (%), mean: 5.6%
  Change in lumbar vertebral density (%), median: 4.9%
[3]; normal (≧80), after 24 W
  Change in lumbar vertebral density (%), mean: 4.3%
  Change in lumbar vertebral density (%), median: 5.1%
[3]; normal (≧80), after 48 W
  Change in lumbar vertebral density (%), mean: 5.4%
  Change in lumbar vertebral density (%), median: 5.6%
[3]; normal (≧80), after 72 W
  Change in lumbar vertebral density (%), mean: 8.1%
[3]; normal (≧80), final
  Change in lumbar vertebral density (%), median: 5.6%
[3]; 24 W
  Change in bone density (%), lumbar spine: 3.50%
  Change in bone density (%), neck of femur: 2.53%
  Change in bone density (%), proximal femur: 2.46%
[3]; 48 W
  Change in bone density (%), lumbar spine: 5.97%
  Change in bone density (%), neck of femur: 2.79%
  Change in bone density (%), proximal femur: 3.39%
[3]; 72 W
  Change in bone density (%), lumbar spine: 6.82%
  Change in bone density (%), neck of femur: 2.44%
  Change in bone density (%), proximal femur: 3.06%
